Values quoted from earlier work, collected in patent US20220347170A1, “Method of Reducing Brow Ache” (priority 2021, published 2022).

Conditions: aceclidine alone; U.S. Pat. Nos. 9,089,562, 9,833,441 and 9,314,427

For CC(=O)OC1CN2CCC1CC2 (stereo not shown) [aceclidine], the brow ache is listed as “significant brow ache”.
